Converted amounts (≈) assume the structure as drawn.
Key:
Format in all cases: cell-based
E. coli = test: Durable antibacterial activity of glass surfaces modified by antibacterial agents (plate/colony counting method)
S. aureas (ATCC 6538) = test: Minimum inhibitory concentration (MIC) test; details: 24 h culture
Experimental: (§1) The minimum inhibitory concentration (MIC) is the lowest concentration of antibacterial agents that can inhibit the visible growth of bacteria after 24 h culture in a specific environment. Methods for determining the minimum inhibitory concentration can be a constant broth dilution method, a trace broth dilution method, an agar dilution method or an E experiment.

[1] = system: E. coli (American Type Culture Collection ATCC 25922); test: Minimum inhibitory concentration (MIC) test; details: E. coli ATCC 25922; 24 h culture
Experimental: as §1

S. aureas = test: Durable antibacterial activity of glass surfaces modified by antibacterial agents (plate/colony counting method)

SMILES | Antibacterial activity of modified glass surface (plate counting method) (E. coli; wash number 0) | Antibacterial activity of modified glass surface (plate counting method) (E. coli; wash number 10) | Antibacterial activity of modified glass surface (plate counting method) (E. coli; wash number 50) | Antibacterial activity of modified glass surface (plate counting method) (E. coli; wash number 100) | Minimum inhibitory concentration (MIC) (S. aureas (ATCC 6538)) | Minimum inhibitory concentration (MIC) [1] | Antibacterial activity of modified glass surface (plate counting method) (S. aureas; wash number 0) | Antibacterial activity of modified glass surface (plate counting method) (S. aureas; wash number 10) | Antibacterial activity of modified glass surface (plate counting method) (S. aureas; wash number 50) | Antibacterial activity of modified glass surface (plate counting method) (S. aureas; wash number 100)
CC1(C)CC(NC(=O)OCC[N+](C)(C)CCCC(=O)[O-])CC(C)(CN=C=O)C1 (stereo not drawn) [Example 11] | 99.99% | 99.8% | 97.1% | 94.5% | 8 mM (≈ 3180 µg/mL) | 10 mM (≈ 3980 µg/mL) | 99.99% | 99.9% | 98.3% | 95.8%
CC[N+](CC)(CCCS(=O)(=O)[O-])CCOC(=O)Nc1ccc(Cc2ccc(N=C=O)cc2)cc1 [Example 2] | 99.99% | 99.9% | 97.3% | 95.9% | 10 mM (≈ 4900 µg/mL) | 12 mM (≈ 5880 µg/mL) | 99.99% | 99.9% | 98.9% | 96.6%
C[N+](C)(CCOC(=O)NCCCCCCN=C=O)CC(=O)[O-] [Example 3] | 99.99% | 99.8% | 98.5% | 96.5% | 8 mM (≈ 2520 µg/mL) | 11 mM (≈ 3470 µg/mL) | 99.99% | 99.9% | 99.0% | 97.2%
CC1(C)CC(NC(=O)OCC[N+](C)(C)CCS(=O)(=O)[O-])CC(C)(CN=C=O)C1 (stereo not drawn) [Example 10] | 99.99% | 99.8% | 97.5% | 94.1% | 9 mM (≈ 3780 µg/mL) | 12 mM (≈ 5030 µg/mL) | 99.99% | 99.9% | 98.9% | 95.3%
C[N+](C)(CCCS(=O)(=O)[O-])CCNC(=O)NC1CCC(CC2CCC(N=C=O)CC2)CC1 (stereo not drawn) [Example 5] | 99.99% | 99.7% | 99.0% | 96.5% | 7 mM (≈ 3310 µg/mL) | 10 mM (≈ 4730 µg/mL) | 99.99% | 99.9% | 99.5% | 98.5%
Cc1cc(NC(=O)NC2CC(C)(C)CC(C)(CN=C=O)C2)cc(C)[n+]1CCCS(=O)(=O)[O-] (stereo not drawn) [Example 9] | 99.99% | 99.8% | 97.1% | 94.3% | 8 mM (≈ 3730 µg/mL) | 10 mM (≈ 4670 µg/mL) | 99.99% | 99.9% | 98.5% | 95.2%

Source: patent US11044908B2, “Reactive antibacterial compound and preparation method thereof” (SHENZHEN UNIVERSITY, priority 2015, dated 2021)
